Laboratory results taken from paper PMC11986975, “A Cdk5 inhibitor restores cognitive function and alleviates type 2 diabetes in mice” (iScience, 2025).

Key:
[1] = target: Cdk5/p35 (Homo sapiens, UniProt Q00535); assay: Cdk5 kinase assay (ADP-Glo) with Cdk5/p35 complex; format: biochemical; conditions: 10 μM ATP, histone substrate, inhibitor 0-100 nM
Method: (§1) The test tube Cdk5 Kinase assay was performed utilizing Cdk5/p35 and Cdk5/p25 complexes as kinases, following the modified procedure outlined in a previous study,[52] using a Promega ADP-GloTM Kinase Assay kit. The reaction was carried out with 10 μM ATP and 2 μg of histone as the substrate for Cdk5 complexes. To study the inhibition patterns, 19 Cdk5 inhibitors (BLINK1-19) identified through molecular docking were added to the Cdk5 kinase reaction in increasing concentrations ranging from 0 to 100 nM. The IC50 (half-maximal inhibitory concentration) values of all the inhibitors were calculated based on Log(inhibitor) vs. normalized response using GraphPad software.

[2] = target: Cdk5/p25 (Homo sapiens, UniProt Q00535); assay: Cdk5 kinase assay (ADP-Glo) with Cdk5/p25 complex; format: biochemical; conditions: 10 μM ATP, histone substrate, inhibitor 0-100 nM
Method: as §1

Sequence of Cdk5/p25 (Q00535 whole entry, species assumed): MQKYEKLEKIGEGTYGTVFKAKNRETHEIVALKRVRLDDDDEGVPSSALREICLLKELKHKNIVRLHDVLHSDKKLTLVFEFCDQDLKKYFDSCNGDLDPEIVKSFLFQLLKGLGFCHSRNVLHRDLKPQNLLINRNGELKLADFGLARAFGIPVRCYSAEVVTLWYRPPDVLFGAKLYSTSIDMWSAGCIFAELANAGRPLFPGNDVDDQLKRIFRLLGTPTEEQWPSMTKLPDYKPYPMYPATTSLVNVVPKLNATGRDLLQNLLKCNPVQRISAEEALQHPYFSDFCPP
Sequence of Cdk5/p25 (Q15078 99-307 partner limits assumed, species assumed): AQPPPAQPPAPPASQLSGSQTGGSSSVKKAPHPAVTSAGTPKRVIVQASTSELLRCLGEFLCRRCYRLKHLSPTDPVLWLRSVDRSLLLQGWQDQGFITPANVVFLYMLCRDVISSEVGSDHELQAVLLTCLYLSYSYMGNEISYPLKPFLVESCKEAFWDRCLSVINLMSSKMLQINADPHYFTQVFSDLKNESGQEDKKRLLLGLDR
Sequence of Cdk5/p35 (Q00535 whole entry, species assumed): as the sequence (Q00535 whole entry, species assumed) above
Sequence of Cdk5/p35 (Q15078 whole entry partner, species assumed): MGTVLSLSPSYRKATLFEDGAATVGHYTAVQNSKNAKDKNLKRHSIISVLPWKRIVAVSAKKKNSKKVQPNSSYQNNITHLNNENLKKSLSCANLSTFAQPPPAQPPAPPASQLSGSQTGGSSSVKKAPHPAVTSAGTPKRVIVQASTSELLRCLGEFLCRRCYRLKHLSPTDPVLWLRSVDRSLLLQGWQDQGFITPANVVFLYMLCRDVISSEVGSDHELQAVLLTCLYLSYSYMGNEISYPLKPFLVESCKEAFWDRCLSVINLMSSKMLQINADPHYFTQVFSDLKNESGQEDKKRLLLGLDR

Row | Structure (SMILES) | IC50 [1] | IC50 [2]
1 | COc1ccc(C(=O)CSc2nc3sc(C)c(C)c3c(=O)[nH]2)cc1C [BLINK2] | 92.6 nM | 33.5 nM
2 | O=C(CSc1n[nH]c(-c2ccc(Cl)cc2)n1)N[C@H]1C[C@@H]2CC[C@H]1C2 [BLINK17] | 63.2 nM | 43.2 nM
3 | CC1CCc2c(sc3nc(CCl)ncc23)C1 (stereo not drawn) [BLINK19] | 55.3 nM | 48.1 nM
4 | Cc1nnc(SCC(=O)Nc2nsc(-c3ccc(Cl)cc3)n2)s1 [BLINK7] | 85.2 nM | 97 nM
5 | Cc1ccc(-c2csc(Cc3nc(-c4cc5ccccc5oc4=O)cs3)n2)cc1 [BLINK3] | 68.7 nM | 71.3 nM
6 | O=C1c2cccc3cccc(c23)C(=O)N1CCCSc1n[nH]c(-c2ccc(F)cc2)n1 [BLINK18] | 57.2 nM | 32.1 nM
7 | OCCCNc1nc(-c2ccccc2Cl)c2cc(Br)ccc2n1 [BLINK6] | 183 nM | 141 nM

Second part, the molecule after the results:

Row | IC50 [1] | IC50 [2] | Structure (SMILES)
8 | 50.6 nM | 108 nM | Cc1ccc2nc(Nc3nc(O)cc(CSc4nnc(C)s4)n3)nc(C)c2c1 [BLINK8]
9 | 28 nM | 21.2 nM | Clc1ccc2nc(SCc3csc(Nc4ccccc4)n3)oc2c1 [BLINK16]
10 | 27.7 nM | 16.9 nM | O=C(Nc1ccc(Cl)cc1C(=O)NCCO)c1ccc(Cl)cc1Cl [BLINK4]
11 | 54.1 nM | 35.1 nM | CCOC(=O)c1cnc(Nc2nc3ccccc3o2)nc1CSc1nnc(C)s1 [BLINK9]
12 | 16.9 nM | 17.5 nM | CN(C)C(=O)CSc1nc2sc3c(c2c(=O)[nH]1)CCCC3 [BLINK5]
13 | 19.2 nM | 18.4 nM | CC1(C)Cc2c(sc3nc(SCC(=O)O)[nH]c(=O)c23)CO1 [BLINK1]
14 | 20.1 nM | 41.5 nM | O=C(CSc1nnc(-c2ccccc2Cl)[nH]1)c1ccc(O)c(O)c1 [BLINK13]
15 | 24.8 nM | 23.1 nM | Cc1cc(C)c2nc(-c3cccnc3)cc(C(=O)Nc3sc(Cc4ccccc4)cc3C(N)=O)c2c1 [BLINK14]
